Assay results as given in US20040192772A1, “Agent for treating the symptoms of dementia disorders and/or depression” (priority 2001, published 2004).

System: patients suffering from dementia disorders and depression
Test: therapy of patients suffering from dementia disorders and depression
Format: in vivo, human
Conditions: compared with the other local anaesthetics of the anilide group (lidocaine, bupivacaine, butanilicaine, etidocaine, tholycaine, ropivacaine)

Cc1cccc(C)c1NC(=O)C1CCCCN1C (stereo not shown) [Mepivacaine, mepivacaine]
effectiveness for the therapy of patients suffering from dementia disorders and depression: most effective
